Test results as given in publication PMC6151437, “Antibacterial Synthetic Peptides Derived from Bovine Lactoferricin Exhibit Cytotoxic Effect against MDA-MB-468 and MDA-MB-231 Breast Cancer Cell Lines” (Molecules : A Journal of Synthetic Chemistry and Natural …, 2017).
≈ marks a conversion by molar mass, not a printed value. Like-named read-outs stand apart in the source and are kept apart here. Bridge positions count the residues as written; N and C are the ends. Square brackets hold non-standard residues; d marks the D form. Ends that are not written are not given here. Peptide text beside a SMILES is read from it. I, II: the chains in the order shown. Ahx = NCCCCCC(=O)O

Tests used:
[1] = system: E. coli ATCC 11775; type: cell-based
Description: (§1) The minimal inhibitory concentration (MIC) was determined using a microdilution assay. In brief, bacterial strains were incubated for 18 to 24 h at 37 °C in an Muller Hinton broth (MHB) until an optical density of 0.15 to 0.30 (620 nm) was obtained. 90 µL of MHB was mixed with 90 µL of peptide (440 µg/mL), and using a 96-well microtiter plate peptide, serial dilution (200, 100, 50, 25, 12.5, and 6.2 µg/mL) was performed. 10 µL of inoculum (2 × 10^6 CFU/mL) was added to each well. Final volume in each well was 100 µL. Then they were incubated for 24 h at 37 °C, and the absorbance at 620 nm was measured using an Asys Expert Plus ELISA reader. For determining the minimum bactericidal concentration (MBC), a small sample was taken from each well using an inoculation loop, which was then spread on MHA plates and incubated overnight at 37 °C. […] Each of these tests was performed twice (n = 2).

[2] = system: E. coli ATCC 25922; type: cell-based
Description: as §1

[3] = type: cell-based, human
Description: (§2) Cytotoxicity assays were performed as previously described. Briefly, breast cancer cell lines (100 µL; 2.5 × 10^3 cells/well) were seeded in 96-well flat bottom tissue culture treated plates and were incubated at 37 °C in a 10% CO2 humidified atmosphere for 24 h, allowing for cell adhesion. Then the media was removed, then 100 µL of FBS (5%) and 100 µL of peptide were added. The peptide final concentration was ranging from 200 to 6.25 µg/mL and the final FBS concentration was 2.5%. Plates were incubated 2 h at 37 °C in a 10% CO2 humidified atmosphere (physiologic pH). Negative controls included medium and water. All controls were prepared in triplicate. Cell viability was determined using the MTT assay after 2 h. For this, 10 µL of MTT solution (5 mg/mL) was added to each well, and the plates were incubated for 2 h at 37 °C. Formazan crystals were clarified by centrifugation, the supernatant was discarded, and the crystals were dissolved in DMSO (100 µL). Absorbance (570 nm) was registered on a Bio-Rad 680 microplate reader. (n = 3).

[4] = type: cell-based, human; remark: listed apart in the source
Description: as §2

[5] = system: human gastric cancer cell line AGS; conditions: cited from earlier work
[6] = system: breast cancer cell line MDA-MB-231; conditions: even at the highest tested concentration (40 µM); cited from earlier work
Description: For the second part of the experiments, all members of each designed peptide family were tested against MDA-MB-468 and MDA-MB-231 breast cancer cell lines (Figure 3). […] When breast cancer cells lines were incubated with linear peptides or cyclic peptides (200 µg/mL), their viability was approximately 80%.

[7] = system: E. coli; set-up: method as in ref 15, 25, 26 = [15]; PMID 25815317; doi:10.1155/2015/453826; 15. León M.A. Leal A.L. Almanzar G. Rosas J.E. García J.E. Rivera Z.J. Antibacterial activity of synthetic peptides derived from Lactoferricin against Escherichia coli ATCC 25922 and Enterococcus faec || [25]; PMID 28613262; doi:10.3390/molecules22060987; 25. Huertas N.J. Monroy Z.J.R. Medina R.F. Castañeda J.E.G. Antimicrobial Activity of Truncated and Polyvalent Peptides Derived from the […] Sequence against Escherichia coli ATCC 25922 an || [26]; PMID 28287494; doi:10.3390/molecules22030452; 26. Huertas Méndez N.J. Vargas Casanova Y. Gómez Chimbi A.K. Hernández E. Leal Castro A.L. Melo Diaz J.M. Rivera Monroy Z.J. García Castañeda J.E. Synthetic Peptides Derived from Bovine Lactoferricin; conditions: first of three values given 'respectively', strain not distinguished; cited from earlier work
[8] = system: S. enteriditis ATCC 13076; set-up: method as in ref 15, 25, 26 = [15]; PMID 25815317; doi:10.1155/2015/453826; 15. León M.A. Leal A.L. Almanzar G. Rosas J.E. García J.E. Rivera Z.J. Antibacterial activity of synthetic peptides derived from Lactoferricin against Escherichia coli ATCC 25922 and Enterococcus faec || [25]; PMID 28613262; doi:10.3390/molecules22060987; 25. Huertas N.J. Monroy Z.J.R. Medina R.F. Castañeda J.E.G. Antimicrobial Activity of Truncated and Polyvalent Peptides Derived from the FKCRRWQWRMKKGLA Sequence against Escherichia coli ATCC 25922 an || [26]; PMID 28287494; doi:10.3390/molecules22030452; 26. Huertas Méndez N.J. Vargas Casanova Y. Gómez Chimbi A.K. Hernández E. Leal Castro A.L. Melo Diaz J.M. Rivera Monroy Z.J. García Castañeda J.E. Synthetic Peptides Derived from Bovine Lactoferricin; conditions: cited from earlier work
[9] = system: S. aureus ATCC 25923; set-up: method as in ref 15, 25, 26 = [15]; PMID 25815317; doi:10.1155/2015/453826; 15. León M.A. Leal A.L. Almanzar G. Rosas J.E. García J.E. Rivera Z.J. Antibacterial activity of synthetic peptides derived from Lactoferricin against Escherichia coli ATCC 25922 and Enterococcus faec || [25]; PMID 28613262; doi:10.3390/molecules22060987; 25. Huertas N.J. Monroy Z.J.R. Medina R.F. Castañeda J.E.G. Antimicrobial Activity of Truncated and Polyvalent Peptides Derived from the FKCRRWQWRMKKGLA Sequence against Escherichia coli ATCC 25922 an || [26]; PMID 28287494; doi:10.3390/molecules22030452; 26. Huertas Méndez N.J. Vargas Casanova Y. Gómez Chimbi A.K. Hernández E. Leal Castro A.L. Melo Diaz J.M. Rivera Monroy Z.J. García Castañeda J.E. Synthetic Peptides Derived from Bovine Lactoferricin; conditions: cited from earlier work
[10] = system: E. coli ATCC 11775; set-up: method as in ref 15, 25, 26 = [15]; PMID 25815317; doi:10.1155/2015/453826; 15. León M.A. Leal A.L. Almanzar G. Rosas J.E. García J.E. Rivera Z.J. Antibacterial activity of synthetic peptides derived from Lactoferricin against Escherichia coli ATCC 25922 and Enterococcus faec || [25]; PMID 28613262; doi:10.3390/molecules22060987; 25. Huertas N.J. Monroy Z.J.R. Medina R.F. Castañeda J.E.G. Antimicrobial Activity of Truncated and Polyvalent Peptides Derived from the FKCRRWQWRMKKGLA Sequence against Escherichia coli ATCC 25922 an || [26]; PMID 28287494; doi:10.3390/molecules22030452; 26. Huertas Méndez N.J. Vargas Casanova Y. Gómez Chimbi A.K. Hernández E. Leal Castro A.L. Melo Diaz J.M. Rivera Monroy Z.J. García Castañeda J.E. Synthetic Peptides Derived from Bovine Lactoferricin; conditions: cited from earlier work
[11] = system: E. coli ATCC 25922; set-up: method as in ref 15, 25, 26 = [15]; PMID 25815317; doi:10.1155/2015/453826; 15. León M.A. Leal A.L. Almanzar G. Rosas J.E. García J.E. Rivera Z.J. Antibacterial activity of synthetic peptides derived from Lactoferricin against Escherichia coli ATCC 25922 and Enterococcus faec || [25]; PMID 28613262; doi:10.3390/molecules22060987; 25. Huertas N.J. Monroy Z.J.R. Medina R.F. Castañeda J.E.G. Antimicrobial Activity of Truncated and Polyvalent Peptides Derived from the FKCRRWQWRMKKGLA Sequence against Escherichia coli ATCC 25922 an || [26]; PMID 28287494; doi:10.3390/molecules22030452; 26. Huertas Méndez N.J. Vargas Casanova Y. Gómez Chimbi A.K. Hernández E. Leal Castro A.L. Melo Diaz J.M. Rivera Monroy Z.J. García Castañeda J.E. Synthetic Peptides Derived from Bovine Lactoferricin; conditions: cited from earlier work
[12] = E. coli ATCC 11775, microdilution in MHB, 24 h at 37 °C, absorbance 620 nm, n = 2
[13] = E. coli ATCC 11775, plated on MHA overnight at 37 °C, no bacterial growth, n = 2
[14] = E. coli ATCC 25922, microdilution in MHB, 24 h at 37 °C, absorbance 620 nm, n = 2
[15] = E. coli ATCC 25922, plated on MHA overnight at 37 °C, no bacterial growth, n = 2

Compound | Antibacterial Effect MBC ([1]; ATCC 11775) [µM] | Antibacterial Effect MIC ([1]; ATCC 11775, 24 h) [µM] | Antibacterial Effect MBC ([2]; ATCC 25922) [µM] | Antibacterial Effect MIC ([2]; ATCC 25922, 24 h) [µM] | IC50 [3] [µM] | IC50 [4] [µM] | IC50 [5] [µM] | cytotoxic activity (in words) [6] | Antibacterial Effect MIC [1, 12] [µg/mL] | Antibacterial Effect MBC [1, 13] [µg/mL] | Antibacterial Effect MIC [2, 14] [µg/mL] | Antibacterial Effect MBC [2, 15] [µg/mL] | IC50 at 2 h ([3]; human) [µM] | MIC [7] [µM] | MIC [8] [µM] | MIC [9] [µM] | MIC [10] [µM] | MIC [11] [µM]
RRWQWR-NH2 [LfcinB (20–25)] | 203 | 203 | 203 | 203 | > 203 | > 203 | > 500 | weak cytotoxic activity |  |  |  |  |  |  |  |  |  | 
N=C(N)NCCC[C@H](NC(=O)[C@H](Cc1c[nH]c2ccccc12)NC(=O)[C@H](CCC(N)=O)NC(=O)[C@H](Cc1c[nH]c2ccccc12)NC(=O)[C@H](CCCNC(=N)N)NC(=O)[C@@H](N)CCCNC(=N)N)C(=O)NCCCC[C@H](NC(=O)[C@H](CCCNC(=N)N)NC(=O)[C@H](Cc1c[nH]c2ccccc12)NC(=O)[C@H](CCC(N)=O)NC(=O)[C@H](Cc1c[nH]c2ccccc12)NC(=O)[C@H](CCCNC(=N)N)NC(=O)[C@@H](N)CCCNC(=N)N)C(=O)NCCCCCC(N)=O [LfcinB (20–25)2] (I: H-RRWQWRK[Ahx]-NH2 / II: H-RRWQWR; amide I:7-II:C) | 22 | 22 | 11 | 6 |  |  |  |  | 50 | 50 | 12.5 | 25 | > 100 | 2.8 (≈ 6.15 µg/mL) | 22.4 (≈ 49.2 µg/mL) | 5.6 (≈ 12.3 µg/mL) |  | 
N=C(N)NCCC[C@H](NC(=O)[C@H](Cc1c[nH]c2ccccc12)NC(=O)[C@H](CCC(N)=O)NC(=O)[C@H](Cc1c[nH]c2ccccc12)NC(=O)[C@H](CCCNC(=N)N)NC(=O)[C@@H](N)CCCNC(=N)N)C(=O)NCCCC[C@H](NC(=O)[C@H](CCCNC(=N)N)NC(=O)[C@H](Cc1c[nH]c2ccccc12)NC(=O)[C@H](CCC(N)=O)NC(=O)[C@H](Cc1c[nH]c2ccccc12)NC(=O)[C@H](CCCNC(=N)N)NC(=O)[C@@H](N)CCCNC(=N)N)C(=O)NCCCCCC(=O)N[C@@H](CSSC[C@H](NC(=O)CCCCCNC(=O)[C@H](CCCCNC(=O)[C@H](CCCNC(=N)N)NC(=O)[C@H](Cc1c[nH]c2ccccc12)NC(=O)[C@H](CCC(N)=O)NC(=O)[C@H](Cc1c[nH]c2ccccc12)NC(=O)[C@H](CCCNC(=N)N)NC(=O)[C@@H](N)CCCNC(=N)N)NC(=O)[C@H](CCCNC(=N)N)NC(=O)[C@H](Cc1c[nH]c2ccccc12)NC(=O)[C@H](CCC(N)=O)NC(=O)[C@H](Cc1c[nH]c2ccccc12)NC(=O)[C@H](CCCNC(=N)N)NC(=O)[C@@H](N)CCCNC(=N)N)C(N)=O)C(N)=O [LfcinB (20–25)4] (I: H-RRWQWRK[Ahx]C-NH2 / II: H-RRWQWRK[Ahx]C-NH2 / III: H-RRWQWR / IV: H-RRWQWR; amide I:7-III:C, II:7-IV:C; disulfide I:9-II:9) | 44 | 22 | 22 | 22 |  |  |  |  | 100 | 200 | 100 | 100 |  |  | 44 (≈ 202 µg/mL) | 25 (≈ 115 µg/mL) | 5.5 (≈ 25.3 µg/mL) | 4.4 (≈ 20.2 µg/mL)
